In PubChem BioAssay (NCI):
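Grown in 96-well plates, cells were treated for 48 hours with each compound at five concentrations. Insufficient inhibition: endpoint recorded as highest concentration tested. Here, GI50 denotes the concentration required for 50% inhibition of growth. TGI: concentration producing complete growth inhibition.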

Columns and labels:
Assay in all cases: DTP human tumour cell line panel, 48 h
OVCAR-5 ovarian = tested on: OVCAR-5 ovarian
NCI/ADR-RES ovarian = tested on: NCI/ADR-RES ovarian
NCI-H522 lung = tested on: NCI-H522 lung
UACC-257 melanoma = tested on: UACC-257 melanoma
SR leukemia = tested on: SR leukemia
SK-MEL-5 melanoma = tested on: SK-MEL-5 melanoma
SK-OV-3 ovarian = tested on: SK-OV-3 ovarian
SN12C renal = tested on: SN12C renal
LOX IMVI melanoma = tested on: LOX IMVI melanoma
PC-3 prostate = tested on: PC-3 prostate
MDA-MB-435 = tested on: MDA-MB-435
COLO 205 colon = tested on: COLO 205 colon
CAKI-1 renal = tested on: CAKI-1 renal
OVCAR-3 ovarian = tested on: OVCAR-3 ovarian
K-562 leukemia = tested on: K-562 leukemia
IGROV1 ovarian = tested on: IGROV1 ovarian
EKVX NSCLC = tested on: EKVX NSCLC
RXF 393 renal = tested on: RXF 393 renal
MDA-N = tested on: MDA-N
MCF7 breast = tested on: MCF7 breast
ACHN renal = tested on: ACHN renal
M14 melanoma = tested on: M14 melanoma
NCI-H460 lung = tested on: NCI-H460 lung
BT-549 breast = tested on: BT-549 breast
HT29 colon = tested on: HT29 colon
SF-268 CNS = tested on: SF-268 CNS
SNB-75 CNS = tested on: SNB-75 CNS
T-47D breast = tested on: T-47D breast
MALME-3M melanoma = tested on: MALME-3M melanoma
SK-MEL-28 melanoma = tested on: SK-MEL-28 melanoma
MDA-MB-231 breast = tested on: MDA-MB-231 breast
NCI-H23 lung = tested on: NCI-H23 lung
HCC-2998 colon = tested on: HCC-2998 colon
OVCAR-4 ovarian = tested on: OVCAR-4 ovarian
SF-539 CNS = tested on: SF-539 CNS
HL-60(TB) leukemia = tested on: HL-60(TB) leukemia
DU-145 prostate = tested on: DU-145 prostate
SNB-19 CNS = tested on: SNB-19 CNS
HCT-15 colon = tested on: HCT-15 colon
A549 NSCLC = tested on: A549 NSCLC
TK-10 renal = tested on: TK-10 renal
SW-620 colon = tested on: SW-620 colon
U251 CNS = tested on: U251 CNS
SK-MEL-2 melanoma = tested on: SK-MEL-2 melanoma
OVCAR-8 ovarian = tested on: OVCAR-8 ovarian
KM12 colon = tested on: KM12 colon
RPMI-8226 leukemia = tested on: RPMI-8226 leukemia
CCRF-CEM leukemia = tested on: CCRF-CEM leukemia
786-0 renal = tested on: 786-0 renal
HCT-116 colon = tested on: HCT-116 colon
NCI-H226 lung = tested on: NCI-H226 lung
UO-31 renal = tested on: UO-31 renal
HS 578T breast = tested on: HS 578T breast
HOP-92 NSCLC = tested on: HOP-92 NSCLC
UACC-62 melanoma = tested on: UACC-62 melanoma
MOLT-4 leukemia = tested on: MOLT-4 leukemia
SF-295 CNS = tested on: SF-295 CNS
HOP-62 NSCLC = tested on: HOP-62 NSCLC
A498 renal = tested on: A498 renal

COC(=O)c1cc(C#Cc2cc(OC)ccc2OC)ccc1OC
TGI (OVCAR-5 ovarian): > 100 µM | TGI (NCI/ADR-RES ovarian): > 100 µM | TGI (NCI-H522 lung): > 100 µM | TGI (UACC-257 melanoma): > 100 µM | TGI (SR leukemia): > 100 µM | TGI (SK-MEL-5 melanoma): 53.1 µM | TGI (SK-OV-3 ovarian): > 100 µM | GI50 (SN12C renal): 37.9 µM | TGI (SN12C renal): > 100 µM | TGI (LOX IMVI melanoma): > 100 µM | TGI (PC-3 prostate): > 100 µM | TGI (MDA-MB-435): > 100 µM | TGI (COLO 205 colon): 52.3 µM | TGI (CAKI-1 renal): > 100 µM | GI50 (OVCAR-3 ovarian): 13.6 µM | TGI (OVCAR-3 ovarian): 77.6 µM | TGI (K-562 leukemia): > 100 µM | TGI (IGROV1 ovarian): > 100 µM | TGI (EKVX NSCLC): > 100 µM | TGI (RXF 393 renal): 84.1 µM | TGI (MDA-N): > 100 µM | TGI (MCF7 breast): > 100 µM | TGI (ACHN renal): > 100 µM | TGI (M14 melanoma): > 100 µM | TGI (NCI-H460 lung): > 100 µM | TGI (BT-549 breast): > 100 µM | TGI (HT29 colon): > 100 µM | TGI (SF-268 CNS): > 100 µM | TGI (SNB-75 CNS): > 100 µM | TGI (T-47D breast): 34.5 µM | TGI (MALME-3M melanoma): > 100 µM | TGI (SK-MEL-28 melanoma): > 100 µM | TGI (MDA-MB-231 breast): > 100 µM | TGI (NCI-H23 lung): > 100 µM | TGI (HCC-2998 colon): > 100 µM | TGI (OVCAR-4 ovarian): > 100 µM | GI50 (SF-539 CNS): 81.1 µM | TGI (SF-539 CNS): > 100 µM | TGI (HL-60(TB) leukemia): > 100 µM | GI50 (DU-145 prostate): 43.6 µM | TGI (DU-145 prostate): > 100 µM | TGI (SNB-19 CNS): > 100 µM | TGI (HCT-15 colon): > 100 µM | TGI (A549 NSCLC): > 100 µM | TGI (TK-10 renal): > 100 µM | TGI (SW-620 colon): > 100 µM | TGI (U251 CNS): > 100 µM | TGI (SK-MEL-2 melanoma): > 100 µM | TGI (OVCAR-8 ovarian): > 100 µM | TGI (KM12 colon): > 100 µM | TGI (RPMI-8226 leukemia): 41.3 µM | GI50 (CCRF-CEM leukemia): 36.8 µM | TGI (CCRF-CEM leukemia): > 100 µM | TGI (786-0 renal): > 100 µM | GI50 (HCT-116 colon): 37.7 µM | TGI (HCT-116 colon): > 100 µM | TGI (NCI-H226 lung): > 100 µM | TGI (UO-31 renal): > 100 µM | TGI (HS 578T breast): > 100 µM | TGI (HOP-92 NSCLC): 85.9 µM | GI50 (UACC-62 melanoma): 29.3 µM | TGI (UACC-62 melanoma): > 100 µM | TGI (MOLT-4 leukemia): 70 µM

Cn1c(-c2cccs2)cc(-c2cccs2)c1-c1ccsc1
TGI (OVCAR-5 ovarian): > 100 µM | TGI (NCI/ADR-RES ovarian): > 100 µM | TGI (UACC-257 melanoma): > 100 µM | TGI (SR leukemia): > 100 µM | TGI (SK-MEL-5 melanoma): > 100 µM | TGI (SK-OV-3 ovarian): > 100 µM | TGI (SN12C renal): > 100 µM | TGI (LOX IMVI melanoma): > 100 µM | TGI (PC-3 prostate): > 100 µM | TGI (MDA-MB-435): > 100 µM | TGI (COLO 205 colon): > 100 µM | TGI (SF-295 CNS): > 100 µM | TGI (CAKI-1 renal): > 100 µM | TGI (OVCAR-3 ovarian): 75.2 µM | TGI (K-562 leukemia): > 100 µM | TGI (EKVX NSCLC): > 100 µM | TGI (RXF 393 renal): > 100 µM | TGI (MDA-N): > 100 µM | TGI (MCF7 breast): > 100 µM | TGI (HOP-62 NSCLC): > 100 µM | TGI (ACHN renal): > 100 µM | TGI (M14 melanoma): > 100 µM | TGI (NCI-H460 lung): > 100 µM | TGI (BT-549 breast): > 100 µM | TGI (HT29 colon): > 100 µM | TGI (SF-268 CNS): > 100 µM | TGI (SNB-75 CNS): > 100 µM | TGI (T-47D breast): > 100 µM | TGI (SK-MEL-28 melanoma): > 100 µM | TGI (MDA-MB-231 breast): > 100 µM | TGI (NCI-H23 lung): > 100 µM | TGI (HCC-2998 colon): > 100 µM | TGI (OVCAR-4 ovarian): > 100 µM | TGI (SF-539 CNS): > 100 µM | TGI (HL-60(TB) leukemia): > 100 µM | TGI (DU-145 prostate): > 100 µM | TGI (SNB-19 CNS): > 100 µM | TGI (HCT-15 colon): > 100 µM | TGI (A549 NSCLC): > 100 µM | TGI (TK-10 renal): > 100 µM | TGI (SW-620 colon): > 100 µM | TGI (U251 CNS): > 100 µM | TGI (A498 renal): > 100 µM | TGI (SK-MEL-2 melanoma): 98.1 µM | TGI (OVCAR-8 ovarian): > 100 µM | TGI (KM12 colon): > 100 µM | TGI (RPMI-8226 leukemia): > 100 µM | TGI (CCRF-CEM leukemia): > 100 µM | TGI (786-0 renal): > 100 µM | TGI (HCT-116 colon): > 100 µM | TGI (NCI-H226 lung): > 100 µM | TGI (UO-31 renal): > 100 µM | TGI (HS 578T breast): > 100 µM | TGI (HOP-92 NSCLC): > 100 µM | TGI (UACC-62 melanoma): > 100 µM | TGI (MOLT-4 leukemia): > 100 µM

c1ccc(-c2nn(-c3ccccc3)[n+](-c3ccccc3)n2)cc1
TGI (OVCAR-5 ovarian): > 100 µM | TGI (NCI/ADR-RES ovarian): > 100 µM | TGI (NCI-H522 lung): > 86.3 µM | TGI (UACC-257 melanoma): 11.7 µM | TGI (SR leukemia): > 44.4 µM | TGI (SK-MEL-5 melanoma): 14.1 µM | TGI (SK-OV-3 ovarian): > 100 µM | TGI (SN12C renal): > 100 µM | TGI (LOX IMVI melanoma): > 92.4 µM | TGI (PC-3 prostate): > 20.7 µM | TGI (MDA-MB-435): 23.5 µM | TGI (COLO 205 colon): > 92.4 µM | TGI (SF-295 CNS): > 100 µM | TGI (CAKI-1 renal): > 100 µM | TGI (K-562 leukemia): > 100 µM | TGI (IGROV1 ovarian): > 100 µM | TGI (EKVX NSCLC): > 43 µM | TGI (RXF 393 renal): 80.6 µM | TGI (MDA-N): 31.5 µM | TGI (MCF7 breast): 25.9 µM | TGI (HOP-62 NSCLC): > 100 µM | TGI (ACHN renal): > 100 µM | TGI (M14 melanoma): 47.5 µM | TGI (NCI-H460 lung): > 100 µM | TGI (BT-549 breast): > 100 µM | TGI (HT29 colon): > 100 µM | TGI (SF-268 CNS): > 38.8 µM | TGI (SNB-75 CNS): > 100 µM | TGI (T-47D breast): > 100 µM | TGI (MALME-3M melanoma): 2.93 µM | TGI (SK-MEL-28 melanoma): > 100 µM | TGI (MDA-MB-231 breast): > 100 µM | TGI (NCI-H23 lung): 28.3 µM | TGI (HCC-2998 colon): 23.7 µM | TGI (OVCAR-4 ovarian): > 100 µM | TGI (SF-539 CNS): > 100 µM | TGI (HL-60(TB) leukemia): 6.47 µM | TGI (DU-145 prostate): > 100 µM | TGI (SNB-19 CNS): > 100 µM | TGI (HCT-15 colon): > 100 µM | TGI (A549 NSCLC): > 100 µM | TGI (TK-10 renal): > 88 µM | TGI (SW-620 colon): > 100 µM | TGI (U251 CNS): > 100 µM | TGI (A498 renal): > 100 µM | TGI (SK-MEL-2 melanoma): > 80.1 µM | TGI (OVCAR-8 ovarian): > 100 µM | TGI (KM12 colon): > 81.7 µM | TGI (CCRF-CEM leukemia): > 39.8 µM | TGI (786-0 renal): > 93.5 µM | TGI (HCT-116 colon): > 56.7 µM | TGI (NCI-H226 lung): > 100 µM | TGI (UO-31 renal): > 100 µM | TGI (HS 578T breast): > 100 µM | TGI (HOP-92 NSCLC): 96.3 µM | TGI (UACC-62 melanoma): 40.9 µM | TGI (MOLT-4 leukemia): > 100 µM
